Reference: patent US20230391786A1, “cGAS INHIBITORS” (Eli Lilly and Company, priority 2022, published 2023)
Like-named read-outs stand apart in the source and are kept apart here.

Assays:
[1] = test system: cGAS activity in THP1 cells (IFNb as marker); test: Cellular assay to measure cGAS activity (IFNb production in PMA-differentiated THP1 cells stimulated by RDG-Adenovirus-GFP); format: cell-based, human; details: PMA differentiated, RDG-Adenovirus-GFP 1000 MOI, IFNb AlphaLISA, overnight incubation, read-out: IC50 (μM), Cellular assay for Compounds 95-348
Method: Cellular assay to measure cGAS activity: Use THP1 cell line from ATCC to determine inhibition of cGAS activity by test compounds in human cells. Plate cells on 96-well plates at 0.2×10^6/well and differentiate with phorbol myristate acetate (PMA) at 37° C./5% CO2. After 24 hours, replace PMA containing media with media lacking PMA and further incubate overnight. Stimulate cells were then by RDG-Adenovirus-GFP (Vector Biolabs #1768) at 1000 MOI for 4 hours prior to the addition of test compounds. After overnight incubation, transfer 10 μL of the media from each well to a new plate for IFNb analysis as a marker for cGAS activity. Measure quantification of IFNb with an IFNb AlphaLISA Detection kit (Perkin Elmer AL3133F) by mixing the acceptor beads with the cell supernatant followed by the addition of the biotinylated antibody and donor beads. Measure the relative fluorescence signal produced from the interaction of the donor and acceptor beads by a PHERAStar AlphaLISA protocol and evaluate the inhibitory effect of a compound by plotting specific inhibition of IFNb production against log concentration of the test compound. Calculate IC50 values using a 4-parameter non-linear logistic equation (y=(S0+((SInf−S0)/(1+((qAC50/x)^nHill))))).

recombinant human cGAS = recombinant human cGAS (Homo sapiens (Human), UniProt Q8N884); test: In vitro inhibition assay of cGAS activity (cGAMP production, RapidFire mass spectrometry); format: biochemical; details: 10 nM recombinant human cGAS, 60 nM 75-bp dsDNA, ATP, GTP, room temperature 3 hours, read-out: IC50 (μM), In vitro inhibition assay for Compounds 95-348
Sequence of recombinant human cGAS (Q8N884 whole entry): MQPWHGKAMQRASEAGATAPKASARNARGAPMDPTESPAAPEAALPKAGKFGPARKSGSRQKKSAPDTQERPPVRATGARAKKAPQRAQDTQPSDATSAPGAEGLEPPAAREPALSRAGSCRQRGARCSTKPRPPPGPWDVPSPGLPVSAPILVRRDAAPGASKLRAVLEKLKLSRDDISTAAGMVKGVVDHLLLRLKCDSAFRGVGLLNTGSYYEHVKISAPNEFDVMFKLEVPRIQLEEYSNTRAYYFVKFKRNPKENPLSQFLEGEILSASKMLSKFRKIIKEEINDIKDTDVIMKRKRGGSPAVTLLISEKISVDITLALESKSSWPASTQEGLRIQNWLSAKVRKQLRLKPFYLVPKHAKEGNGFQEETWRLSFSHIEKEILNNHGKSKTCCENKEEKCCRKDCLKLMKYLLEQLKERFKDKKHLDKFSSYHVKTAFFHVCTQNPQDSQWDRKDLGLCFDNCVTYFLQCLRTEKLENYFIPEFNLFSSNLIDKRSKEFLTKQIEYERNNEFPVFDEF
Method in brief: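 Product cGAMP was quantified by RapidFire MS against a difluoro-cGAMP internal standard after a formic acid quench. The reaction contained 10 nM recombinant full-length human cGAS, 75-bp dsDNA (60 nM), ATP and GTP (50 μM) and ran for 3 h at room temperature. IC50 values came from 4-parameter nonlinear regression.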

[2] = Homo sapiens, THP-1, THP1 cells

SMILES | IC50 ([1]; THP1 cells) [µM] | IC50 (recombinant human cGAS) [µM] | IC50 [1, 2] [µM]
O=C1NCC(C(=O)N2CCn3c(c(-c4cn[nH]c4)c4ccc(Cl)c(Cl)c43)C2)O1 (single isomer, unassigned) [Example 259, 5-[6,7-Dichloro-10-(1H-pyrazol-4-yl)-3,4-dihydro-1H-pyrazino[1,2-a]indole-2-carbonyl]oxazolidin-2-one] | 0.765 | 0.0373 | 
O=C1NCC(C(=O)N2CCn3c(c(-c4cn[nH]c4)c4ccc(Cl)c(Cl)c43)C2)O1 (single isomer, unassigned) [Example 260, 5-[6,7-Dichloro-10-(1H-pyrazol-4-yl)-3,4-dihydro-1H-pyrazino[1,2-a]indole-2-carbonyl]oxazolidin-2-one] | 4.05 | 0.0115 | 
OCC(O)CNc1cc(Cl)c(Cl)c2[nH]cc(-c3cn[nH]c3)c12 (single isomer, unassigned) [Example 261, 3-[[6,7-Dichloro-3-(1H-pyrazol-4-yl)-1H-indol-4-yl]amino]propane-1,2-diol] |  | 0.0452 | 2.34
OCC(O)CNc1cc(Cl)c(Cl)c2[nH]cc(-c3cn[nH]c3)c12 (single isomer, unassigned) [Example 262, 3-[[6,7-Dichloro-3-(1H-pyrazol-4-yl)-1H-indol-4-yl]amino]propane-1,2-diol] | 3.62 | 0.0772 | 
CC(=O)N1CCOC(CC(=O)N2CCn3c(c(-c4cn[nH]c4)c4ccc(Cl)c(Cl)c43)C2)C1 (single isomer, unassigned) [Example 264, 2-(4-acetylmorpholin-2-yl)-1-(6,7-dichloro-10-(1H-pyrazol-4-yl)-3,4-dihydropyrazino[1,2-a]indol-2(1H)-yl)ethan-1-one] |  | 0.0462 | > 10
CC(=O)N1CCOC(CC(=O)N2CCn3c(c(-c4cn[nH]c4)c4ccc(Cl)c(Cl)c43)C2)C1 (single isomer, unassigned) [Example 265, 2-(4-acetylmorpholin-2-yl)-1-(6,7-dichloro-10-(1H-pyrazol-4-yl)-3,4-dihydropyrazino[1,2-a]indol-2(1H)-yl)ethan-1-one] | > 10 | 0.0511 | 
O[C@@H]1C[C@H](Oc2cc(Cl)c(Cl)c3[nH]cc(-c4cn[nH]c4)c23)[C@@H](O)C1 (single isomer, unassigned) [Example 270, 4-[[6,7-Dichloro-3-(1H-pyrazol-4-yl)-1H-indol-4-yl]oxy]cyclopentane-1,3-diol] | 0.635 | 0.0207 | 
O[C@@H]1C[C@H](Oc2cc(Cl)c(Cl)c3[nH]cc(-c4cn[nH]c4)c23)[C@@H](O)C1 (single isomer, unassigned) [Example 271, 4-[[6,7-Dichloro-3-(1H-pyrazol-4-yl)-1H-indol-4-yl]oxy]cyclopentane-1,3-diol] | 6.75 | 0.184 | 
O=C(CO)NC1CCn2c1c(-c1cn[nH]c1)c1ccc(Cl)c(Cl)c12 (single isomer, unassigned) [Example 345, N-(5,6-Dichloro-9-(1H-pyrazol-4-yl)-2,3-dihydro-1H-pyrrolo[1,2-a]indol-1-yl)-2-hydroxyacetamide] | 3.97 | 0.0628 | 
O=C(CO)NC1CCn2c1c(-c1cn[nH]c1)c1ccc(Cl)c(Cl)c12 (single isomer, unassigned) [Example 346, N-(5,6-Dichloro-9-(1H-pyrazol-4-yl)-2,3-dihydro-1H-pyrrolo[1,2-a]indol-1-yl)-2-hydroxyacetamide] | 0.914 | 0.00769 | 
OCCC1CCn2c1c(-c1cn[nH]c1)c1ccc(Cl)c(Cl)c12 (single isomer, unassigned; isomer 1) [Example 242, 2-(5,6-Dichloro-9-(1H-pyrazol-4-yl)-2,3-dihydro-1H-pyrrolo[1,2-a]indol-1-yl)ethan-1-ol isomer 1] |  | 0.464 | > 10
O[C@H]1CC[C@@H](Nc2cc(Cl)c(Cl)c3[nH]cc(-c4cn[nH]c4)c23)C1 (single isomer, unassigned; isomer 2) [Example 210, Cis-3-[[6,7-Dichloro-3-(1H-pyrazol-4-yl)-1H-indol-4-yl]amino]cyclopentanol, isomer 2] |  | 0.0365 | 2.17
OCCC1CCn2c1c(-c1cn[nH]c1)c1ccc(Cl)c(Cl)c12 (single isomer, unassigned; isomer 2) [Example 243, 2-(5,6-Dichloro-9-(1H-pyrazol-4-yl)-2,3-dihydro-1H-pyrrolo[1,2-a]indol-1-yl)ethan-1-ol isomer 2] | 9.35 | 0.0472 | 
O=C(CO)NC1CCc2c(-c3cn[nH]c3)c3ccc(Cl)c(Cl)c3n2C1 (stereo not shown) [Example 95, N-[3,4-Dichloro-10-(1H-pyrazol-4-yl)-6,7,8,9-tetrahydropyrido[1,2-a]indol-7-yl]-2-hydroxy-acetamide] |  | 0.0159 | 2.06
O=C(NC1CCc2c(-c3cn[nH]c3)c3ccc(Cl)c(Cl)c3n2C1)C1CCOCC1 (stereo not shown) [Example 96, N-[3,4-Dichloro-10-(1H-pyrazol-4-yl)-6,7,8,9-tetrahydropyrido[1,2-a]indol-7-yl]tetrahydropyran-4-carboxamide] |  | 0.0449 | 2.43
CC(=O)NC1CCc2c(-c3cn[nH]c3)c3c(OCC#N)cc(Cl)c(Cl)c3n2C1 (stereo not shown) [Example 102, N-[3,4-Dichloro-1-(cyanomethoxy)-10-(1H-pyrazol-4-yl)-6,7,8,9-tetrahydropyrido[1,2-a]indol-7-yl]acetamide] |  | 0.0166 | 1.28
O=C(Cn1cnnc1)NCc1[nH]c2c(Cl)c(Cl)ccc2c1-c1cn[nH]c1 [Example 103, N-((6,7-Dichloro-3-(1H-pyrazol-4-yl)-1H-indol-2-yl)methyl)-2-(4H-1,2,4-triazol-4-yl)acetamide] |  | 0.051 | > 10
CC(=O)NCC(=O)NC1CCc2c(-c3cn[nH]c3)c3ccc(Cl)c(Cl)c3n2C1 (stereo not shown) [Example 107, 2-Acetamido-N-[3,4-dichloro-10-(1H-pyrazol-4-yl)-6,7,8,9-tetrahydropyrido[1,2-a]indol-7-yl]acetamide] |  | 0.0196 | 5.56
O=C(Cn1ccnc1)N1CCn2c(c(-c3cn[nH]c3)c3ccc(Cl)c(Cl)c32)C1 [Example 111, 1-[6,7-Dichloro-10-(1H-pyrazol-4-yl)-3,4-dihydro-1H-pyrazino[1,2-a]indol-2-yl]-2-imidazol-1-yl-ethanone] |  | 0.0468 | > 10
O=C(Cc1cnccn1)NCc1[nH]c2c(Cl)c(Cl)ccc2c1-c1cn[nH]c1 [Example 112, N-((6,7-Dichloro-3-(1H-pyrazol-4-yl)-1H-indol-2-yl)methyl)-2-(pyrazin-2-yl)acetamide] |  | 0.0361 | 1.56
CN(C)C(=O)CCC(=O)N1CCn2c(c(-c3cn[nH]c3)c3c(OCC#N)cc(Cl)c(Cl)c32)C1 [Example 113, 4-[6,7-Dichloro-9-(cyanomethoxy)-10-(1H-pyrazol-4-yl)-3,4-dihydro-1H-pyrazino[1,2-a]indol-2-yl]-N,N-dimethyl-4-oxo-butanamide] |  | 0.018 | 3.46
CN1CCOC[C@@H]1CC(=O)N1CCn2c(c(-c3cn[nH]c3)c3c(OCC#N)cc(Cl)c(Cl)c32)C1 [Example 114, (S)-2-((6,7-Dichloro-2-(2-(4-methylmorpholin-3-yl)acetyl)-10-(1H-pyrazol-4-yl)-1,2,3,4-tetrahydropyrazino[1,2-a]indol-9-yl)oxy)acetonitrile] |  | 0.0244 | 1.53
CN1CCOC[C@H]1CC(=O)N1CCn2c(c(-c3cn[nH]c3)c3c(OCC#N)cc(Cl)c(Cl)c32)C1 [Example 115, (R)-2-((6,7-Dichloro-2-(2-(4-methylmorpholin-3-yl)acetyl)-10-(1H-pyrazol-4-yl)-1,2,3,4-tetrahydropyrazino[1,2-a]indol-9-yl)oxy)acetonitrile] |  | 0.0288 | 1.12
CC(=O)NC1CCCn2c1c(-c1cn[nH]c1)c1ccc(Cl)c(Cl)c12 (stereo not shown) [Example 116, N-(3,4-Dichloro-10-(1H-pyrazol-4-yl)-6,7,8,9-tetrahydropyrido[1,2-a]indol-9-yl)acetamide] |  | 0.0217 | 5.23
COCCS(=O)(=O)NC1CCc2c(-c3cn[nH]c3)c3ccc(Cl)c(Cl)c3n2C1 (stereo not shown) [Example 117, N-[3,4-Dichloro-10-(1H-pyrazol-4-yl)-6,7,8,9-tetrahydropyrido[1,2-a]indol-7-yl]-2-methoxy-ethanesulfonamide] |  | 0.0153 | 2.49
CNC(=O)CCS(=O)(=O)NC1CCc2c(-c3cn[nH]c3)c3ccc(Cl)c(Cl)c3n2C1 (stereo not shown) [Example 118, 3-(N-(3,4-Dichloro-10-(1H-pyrazol-4-yl)-6,7,8,9-tetrahydropyrido[1,2-a]indol-7-yl)sulfamoyl)-N-methylpropanamide] |  | 0.0165 | 3.61
